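A five-concentration, 48-hour dose response in 96-well plates underlies each endpoint, interpolated linearly between surrounding concentrations. The concentration for 50% growth inhibition is given as GI50. The concentration for full growth arrest is given as TGI.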
Assays:
Assay in all cases: DTP human tumour cell line panel, 48 h
[1] = system: T-47D breast
[2] = system: NCI-H226 lung
[3] = system: HCC-2998 colon
[4] = system: TK-10 renal
[5] = system: NCI-H23 lung
[6] = system: SK-MEL-2 melanoma
[7] = system: CAKI-1 renal
[8] = system: K-562 leukemia
[9] = system: SF-295 CNS
[10] = system: RXF 393 renal
[11] = system: A549 NSCLC
[12] = system: HCT-116 colon
[13] = system: ACHN renal
[14] = system: EKVX NSCLC
[15] = system: SF-539 CNS
[16] = system: NCI-H522 lung
[17] = system: UO-31 renal
[18] = system: OVCAR-5 ovarian
[19] = system: LOX IMVI melanoma
[20] = system: MOLT-4 leukemia
[21] = system: SW-620 colon
[22] = system: A498 renal
[23] = system: OVCAR-3 ovarian
[24] = system: HOP-92 NSCLC
[25] = system: NCI-H460 lung
[26] = system: MDA-N
[27] = system: SK-MEL-5 melanoma
[28] = system: HOP-62 NSCLC
[29] = system: IGROV1 ovarian
[30] = system: UACC-62 melanoma
[31] = system: U251 CNS
[32] = system: CCRF-CEM leukemia
[33] = system: KM12 colon
[34] = system: MCF7 breast
[35] = system: OVCAR-4 ovarian
[36] = system: M14 melanoma
[37] = system: SF-268 CNS
[38] = system: SK-MEL-28 melanoma
[39] = system: UACC-257 melanoma
[40] = system: OVCAR-8 ovarian
[41] = system: HCT-15 colon
[42] = system: SNB-19 CNS
[43] = system: SN12C renal
[44] = system: COLO 205 colon
[45] = system: SNB-75 CNS
[46] = system: MALME-3M melanoma
[47] = system: BT-549 breast
[48] = system: MDA-MB-231 breast
[49] = system: 786-0 renal
[50] = system: PC-3 prostate
[51] = system: SR leukemia
[52] = system: HL-60(TB) leukemia
[53] = system: MDA-MB-435
[54] = system: DU-145 prostate
[55] = system: HT29 colon
[56] = system: NCI/ADR-RES ovarian
[57] = system: SK-OV-3 ovarian
[58] = system: RPMI-8226 leukemia
[59] = system: HS 578T breast

CC1(C)[C@@H]2C[C@H]1[C@@H](Cc1cccc(C[C@H]3c4cc(-c5ccccn5)ncc4[C@H]4C[C@@H]3C4(C)C)c1)c1cc(-c3ccccn3)ncc12
TGI [1]: > 49.3 µM | TGI [2]: > 91.2 µM | TGI [3]: > 100 µM | TGI [4]: > 100 µM | TGI [5]: > 77.4 µM | TGI [6]: > 100 µM | TGI [7]: 17 µM | TGI [8]: > 49.1 µM | TGI [9]: > 100 µM | TGI [10]: > 100 µM | TGI [11]: > 100 µM | TGI [12]: > 47.6 µM | TGI [13]: > 66.6 µM | TGI [14]: > 60 µM | TGI [15]: > 100 µM | TGI [16]: > 70.8 µM | TGI [17]: 8.82 µM | TGI [18]: > 100 µM | TGI [19]: > 100 µM | TGI [20]: > 100 µM | TGI [21]: > 61.4 µM | TGI [22]: > 93.2 µM | TGI [23]: > 100 µM | TGI [24]: 83.4 µM | TGI [25]: > 33.4 µM | TGI [26]: > 100 µM | TGI [27]: > 38 µM | TGI [28]: > 100 µM | TGI [29]: > 53.3 µM | TGI [30]: > 100 µM | TGI [31]: > 100 µM | TGI [32]: > 100 µM | TGI [33]: > 100 µM | TGI [34]: > 100 µM | TGI [35]: > 100 µM | TGI [36]: > 100 µM | TGI [37]: > 100 µM | TGI [38]: > 100 µM | TGI [39]: > 100 µM | TGI [40]: > 43.9 µM | TGI [41]: > 100 µM | TGI [42]: > 72.6 µM | TGI [43]: > 29.9 µM | TGI [44]: > 65.5 µM | TGI [45]: > 100 µM | GI50 [46]: 1.78 µM | TGI [46]: 8.14 µM | TGI [47]: > 100 µM | TGI [48]: > 100 µM | TGI [49]: > 47.6 µM | TGI [50]: > 100 µM | GI50 [51]: > 100 µM | TGI [51]: > 100 µM | TGI [52]: 4.33 µM | TGI [53]: > 100 µM | TGI [54]: > 24.7 µM | GI50 [55]: 12.5 µM | TGI [55]: > 100 µM | TGI [56]: 40.3 µM | TGI [57]: > 100 µM | TGI [58]: > 26.4 µM

c1cc(-c2ccc(-c3ccc(-c4ccc(-c5ccncc5)o4)cc3)o2)ccn1
TGI [1]: 40.9 µM | TGI [2]: 56 µM | TGI [3]: 33.1 µM | TGI [4]: 31.2 µM | TGI [5]: 39.1 µM | TGI [7]: 46.7 µM | TGI [8]: 39 µM | TGI [9]: 30.9 µM | TGI [10]: > 100 µM | TGI [11]: 35.7 µM | TGI [12]: 29.6 µM | TGI [13]: 64.6 µM | TGI [14]: 45 µM | TGI [16]: 31.7 µM | TGI [17]: 38 µM | TGI [18]: 55.6 µM | TGI [19]: 42.8 µM | TGI [20]: 25.7 µM | TGI [21]: > 100 µM | TGI [22]: > 100 µM | TGI [23]: 63.8 µM | TGI [59]: > 100 µM | TGI [24]: 83.7 µM | TGI [25]: 35.3 µM | TGI [26]: 31.1 µM | TGI [27]: 26 µM | TGI [28]: 55.3 µM | TGI [29]: 35.8 µM | TGI [30]: 32.9 µM | TGI [31]: 35.3 µM | TGI [32]: 30.2 µM | TGI [33]: 32.2 µM | TGI [34]: 38.7 µM | TGI [35]: 65.4 µM | TGI [36]: 32.2 µM | TGI [37]: 38.1 µM | TGI [38]: 44.6 µM | TGI [39]: 29.6 µM | TGI [40]: 33.5 µM | TGI [41]: 28.3 µM | TGI [42]: 39.7 µM | TGI [43]: 45.5 µM | TGI [44]: 30.2 µM | TGI [45]: 36.6 µM | TGI [46]: 34.7 µM | TGI [47]: 30.7 µM | TGI [48]: 63.8 µM | TGI [49]: 30.7 µM | TGI [50]: 36.4 µM | TGI [51]: 58.8 µM | TGI [52]: 43.5 µM | TGI [53]: 33.4 µM | TGI [54]: 28.2 µM | TGI [55]: 44.7 µM | TGI [56]: > 100 µM | TGI [57]: 45.2 µM
